For twelve molecules, TGI and GI50 results are on record in PubChem BioAssay (NCI).

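Results reflect a 48-hour exposure of cells in 96-well plates to compound at five concentrations. GI50 is the concentration that inhibits growth by half. TGI is the concentration that stops growth completely.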 Some results are limits rather than exact numbers.

Among the test systems are COLO 205 colon; HCT-15 colon; HL-60(TB) leukemia; LOX IMVI melanoma; OVCAR-3 ovarian; SF-539 CNS; SK-MEL-28 melanoma; SNB-75 CNS; SR leukemia; SK-MEL-2 melanoma.
Common to all, as to assay: NCI-60 cell line screen, 48 h

Regarding `O=c1nc(-c2ccccc2)cc(-c2ccccc2O)[nH]1`, the TGI in the assay with COLO 205 colon, in the assay on HCT-15 colon, in the assay with HL-60(TB) leukemia, in the assay on LOX IMVI melanoma, in the assay with OVCAR-3 ovarian and in the assay with SF-539 CNS was over 100 µM in each case. Also, the TGI in the assay with SK-MEL-28 melanoma, in the assay with SNB-75 CNS and in the assay with SR leukemia was over 100 µM in each case.

As for `O=C1CSC(c2ccc(-c3nc4ccccc4s3)cc2)=N1`, the GI50 in the assay with COLO 205 colon is over 100 µM; in the assay with HCT-15 colon it was 51.9 µM; in the assay with HL-60(TB) leukemia it was 18.4 µM; in the assay on LOX IMVI melanoma, 7.48 µM; in the assay on OVCAR-3 ovarian, 16 µM; in the assay on SK-MEL-2 melanoma it was 40.9 µM. Moreover, the values for the GI50 in the assay on SK-MEL-28 melanoma, in the assay with SNB-75 CNS and in the assay with SR leukemia were 87.2 µM, over 100 µM and 13.1 µM, respectively. Besides, the TGI is over 100 µM in the assay with COLO 205 colon; over 100 µM with HCT-15 colon; over 100 µM in the assay on HL-60(TB) leukemia; 26.9 µM with LOX IMVI melanoma; 55 µM in the assay with OVCAR-3 ovarian; over 100 µM in the assay on SK-MEL-2 melanoma. For the same molecule, the TGI in the assay with SK-MEL-28 melanoma was over 100 µM; in the assay with SNB-75 CNS, over 100 µM; in the assay on SR leukemia, 59.8 µM.

Consider `O=c1c2ccccc2nc(-c2ccccc2)n1NC(=S)Nc1ccccc1`, for which the TGI with COLO 205 colon, in the assay with HCT-15 colon, with HL-60(TB) leukemia, in the assay on LOX IMVI melanoma, with SF-539 CNS and with SK-MEL-2 melanoma was over 100 µM in each case. Further, the TGI in the assay on SK-MEL-28 melanoma, in the assay with SNB-75 CNS and in the assay on SR leukemia was over 100 µM throughout.

As for `Oc1ccc(Br)cc1C=Nc1ccc(N=Cc2cc(Br)ccc2O)cc1`, the TGI with HCT-15 colon, in the assay with HL-60(TB) leukemia, in the assay with LOX IMVI melanoma, in the assay with SF-539 CNS, with SK-MEL-2 melanoma and in the assay with SNB-75 CNS was over 100 µM throughout. The TGI in the assay with SR leukemia is over 100 µM.

As for `CC1=C(C(=O)NNS(=O)(=O)c2ccc(C)cc2)CC(C(=O)NNS(=O)(=O)c2ccc(C)cc2)=C(C)N1`, the TGI with COLO 205 colon, in the assay on HCT-15 colon, with HL-60(TB) leukemia, with LOX IMVI melanoma, in the assay on OVCAR-3 ovarian and in the assay on SF-539 CNS was over 100 µM each time. In addition, the TGI in the assay on SK-MEL-2 melanoma, in the assay on SK-MEL-28 melanoma and in the assay with SR leukemia was over 100 µM in each case.

Take `COc1ccc2c(c1)C(C)Cc1c(ncnc1-n1cnc3cc(C)ccc31)N2C` (configuration not stated): the GI50 in the assay on COLO 205 colon is 0.176 µM; in the assay on HCT-15 colon it was 0.207 µM; in the assay on HL-60(TB) leukemia it was 0.0956 µM; in the assay on LOX IMVI melanoma it was 0.0642 µM; with OVCAR-3 ovarian it was 0.151 µM; with SK-MEL-2 melanoma, 0.187 µM. Moreover, the GI50 in the assay with SK-MEL-28 melanoma is 0.575 µM; in the assay on SNB-75 CNS, 0.0529 µM; in the assay on SR leukemia, 0.0443 µM. Also, the TGI in the assay on COLO 205 colon was found to be 0.388 µM; in the assay with HCT-15 colon it was 12.9 µM; in the assay on HL-60(TB) leukemia, 0.433 µM; with LOX IMVI melanoma it was 14.5 µM; with OVCAR-3 ovarian, 14.1 µM; with SK-MEL-2 melanoma, 13.4 µM. Further, the figures for the TGI in the assay on SK-MEL-28 melanoma, in the assay on SNB-75 CNS and in the assay with SR leukemia were 19.8 µM, 19.9 µM and 11.1 µM, respectively.

On to `Cc1ccc(S(=O)(=O)NC(=O)NC2=NC(C)(C)N(c3ccc(Cl)c(Cl)c3)C(N)=N2)cc1`, for which the TGI with COLO 205 colon, in the assay with HCT-15 colon, in the assay on HL-60(TB) leukemia, in the assay with OVCAR-3 ovarian, with SF-539 CNS and in the assay on SK-MEL-2 melanoma was over 100 µM in each case. The TGI in the assay on SK-MEL-28 melanoma, in the assay on SNB-75 CNS and in the assay with SR leukemia was over 100 µM throughout.

Regarding `C[C@]12CC[C@@H]3c4ccc(O)c([N+](=O)[O-])c4CC[C@H]3[C@@H]1CC[C@@H]2NS(=O)(=O)c1cccc(Br)c1`, the GI50 in the assay on COLO 205 colon is 2.78 µM; with HCT-15 colon, 1.59 µM; in the assay with HL-60(TB) leukemia, 2.4 µM; in the assay with OVCAR-3 ovarian, 2.43 µM; in the assay on SF-539 CNS, 1.55 µM; in the assay on SK-MEL-2 melanoma it was 2.35 µM. Moreover, the GI50 in the assay with SK-MEL-28 melanoma was 1.85 µM; in the assay with SNB-75 CNS, 1.19 µM; in the assay on SR leukemia, 3.09 µM. Further, the TGI in the assay on COLO 205 colon turned out to be 7.26 µM; in the assay on HCT-15 colon, 3.09 µM; with HL-60(TB) leukemia, 6.04 µM; in the assay on OVCAR-3 ovarian, 5.64 µM; with SF-539 CNS, 3.24 µM; with SK-MEL-2 melanoma, 5.34 µM. The TGI with SK-MEL-28 melanoma was 3.67 µM; in the assay with SNB-75 CNS it was 2.7 µM; in the assay on SR leukemia, 9.41 µM.

As to `Cc1cccc(C)c1NC(=O)C(=O)CC(=O)c1cccc([N+](=O)[O-])c1`, the TGI with COLO 205 colon, in the assay with HCT-15 colon, with HL-60(TB) leukemia, in the assay with OVCAR-3 ovarian, in the assay with SF-539 CNS and in the assay on SK-MEL-2 melanoma was over 100 µM in each case. For the same molecule, the TGI in the assay with SK-MEL-28 melanoma, in the assay on SNB-75 CNS and in the assay with SR leukemia was over 100 µM each time.

Take `O=C(O)CSc1n[nH]c(Cc2ccccc2)n1`: the TGI in the assay with HCT-15 colon, in the assay with HL-60(TB) leukemia, with LOX IMVI melanoma, in the assay on OVCAR-3 ovarian, in the assay on SF-539 CNS and in the assay on SK-MEL-2 melanoma was over 100 µM in each case. Also, the TGI with SK-MEL-28 melanoma and with SR leukemia was over 100 µM each time.

With `CC(C)C1=C2CCC3(C)C(CCC4C5C6OCC5(CCC6(C)C)CCC43C)C2(C)CC1` (configuration not stated), the TGI came out at 37.3 µM in the assay with COLO 205 colon; 40.7 µM in the assay on HCT-15 colon; 27.9 µM in the assay on HL-60(TB) leukemia; 28.7 µM in the assay on LOX IMVI melanoma; 51 µM with OVCAR-3 ovarian; 32.9 µM in the assay with SF-539 CNS. For the same molecule, the TGI with SK-MEL-2 melanoma was 81.7 µM; in the assay on SK-MEL-28 melanoma, 32.8 µM; with SR leukemia, 30.6 µM.

As for `Nc1ccc2nc3n(c2c1)C(=O)c1ccccc1-3`, the TGI with COLO 205 colon, in the assay on HCT-15 colon, in the assay on HL-60(TB) leukemia, in the assay with OVCAR-3 ovarian, in the assay on SF-539 CNS and in the assay with SK-MEL-2 melanoma was over 100 µM throughout. The TGI in the assay on SK-MEL-28 melanoma, in the assay on SNB-75 CNS and in the assay with SR leukemia was over 100 µM each time.
